This note sets out measurements from patent US10590384B2, “Luterial and method for isolating and culturing the same” (LUTERION CO., LTD., priority 2014, dated 2020).

pIC50: −log10 of the molar value.

Assay [1] is described as follows: Measurement of ATP content in media (luciferin-luciferase reaction, luminometer). The following applies: luterial media with SSF (12 hr) compared with luterial media with SSH (12 hr). How it is done: SSH and SSF were further added to the media and their effects on ATP production by luterial were examined. A mediacontaining SSF induced higher ATP production by luterialcompared to a mediawith SSH, thus finding a medium mix that is capable of efficiently increasing the ATP production by luterial (FIG. 18).
10 mL of each of four media, including a control, luterial, luterial with SSH (12 hr) and luterial with SSF (12 hr), was placed in a tube, and glucose (100 mg/mL) and ADP substrate (1 mM) were added thereto, followed by culture in water bath at 37° C. At 30-min intervals after the start of the culture, 100 μl of a sample was collected, placed in a tube, and diluted 10-fold with 900 μl of distilled water. Then, 10 μl of the sample was transferred into a fresh tube, and 100 μl of luciferase reagent contained in the ATP kit was added thereto, and measurement was immediately performed five times using a luminometer.

Assay [2] concerns SKOV3 ovarian cancer cell line. Put plainly: MTT assay, growth inhibition of SKOV3 ovarian cancer cell line. The class given is cell-based. The following applies: positive control drug; cell line not stated (SKOV3 and A2780 tested, FIG. 27).

On to `O=c1c(O)c(-c2ccc(O)c(O)c2)oc2cc(O)ccc12` [SSF, fisetin], for which, in assay [1], the “ATP concentration in luterial media with additive” value is on record as “higher than that in the SSH-added group”. As to `N.N.[Cl][Pt][Cl]` [cisplatin], the pIC50 in assay [2] is 4.00.
